Results on eight compounds are retold here after patent US11813257B2, “Methods of treating erythropoietic protoporphyria, X-linked protoporphyria, or congenital erythropoietic porphyria with glycine transport inhibitors” (Disc Medicine, Inc., priority 2020, dated 2023).

SMILES strings stand for the structures.

Common to all, as to type: cell-based
Data set [1] has as its system K562 clone-9 cells. Nature of the data set: EPP cellular model: PPIX level by flow cytometry after 96 h compound incubation. The note with it: for EC50: Homo sapiens, K562 clone-9 cells, 96 hours, flow cytometry, read-out: EPP cellular model (EC50 nM), inhibition of PPIX accumulation. Here is the method: Knockout guide sequences were designed to target Exon3 of the Ferrochelatase gene.
K562 cells were cultured in Iscove's Modified Dulbecco's Medium (IMDM) supplemented with 10% fetal bovine serum (FBS), 1% penicillin/streptomycin (PS). CRISPR Cas9 RNP complex with guide RNA was electroporated in K562 cells. Genomic DNA from the pooled cells was isolated, amplified by PCR and sequenced by Sanger sequencing to determine knockout efficiency. Single-cell clones were isolated by fluorescent-assisted cell sorting (FACS). TA cloning and Sanger sequencing were used to confirm single-cell clones and genotypes. Five clones were selected (Clone IDs are: Clone 1-7; Clone 1-9; Clone 1-10, Clone 1-32; Clone 1-51; and K562 WT) for further characterization by western blot (FIG. 1) to determine FECH protein expression levels (Antibody: FECH Antibody Rabbit Polyclonal, Proteintech, 14466-1-AP) and flow cytometry to determine the PPIX levels (FIG. 2). LC/MS/MS confirmed the accumulation of PPIX in clone 1-9 compared to WT K562 cells (FIG. 3).
(§1) 900 μL of K562 clone-9 cells at 2×10^5 cells/mL in IMDM media with 10% FBS and 1% PS were plated into a 24-well plate. After 24-hour incubation, 100 μL of compound in DMSO/media was added in different concentration. The final concentration of DMSO was 0.1%. The compound was incubated for 96 hours at 37° C. Cell viability and cell count were measured by Vi-CELL XR Complete System. Finally, the effect of the compound on PPIX level was determined by flow cytometry.

Data set [2] deals with K562 clone-9 cells. Put plainly: Cell viability and cell count by Vi-CELL XR Complete System in EPP cellular model. The note with it: 96 hours, Vi-CELL XR. Here is the method:
as §1

Data set [3] has as its system clone 1-9 cells (EPP K562 cellular model). Put plainly: LC/MS/MS of 5-ALA, PPIX and heme levels in the EPP K562 cellular model.
In data set [4] the test system is human cord blood-CD34+ cells. Nature of the data set: Human cord blood CD34+ cells transduced with FECH shRNA lentivirus, erythroid differentiation, flow cytometry. The note with it: 100 nM, 9 days differentiation. Here is the method:
To investigate the effects of GlyT1 inhibitors in human hematopoietic stem cells with an EPP phenotype, lentiviral vectors expressing shRNA of FECH were constructed (Table 4) and transduced at 25 MOI into human cord blood-CD34+ cells purchased from Stemexpress.
Transduced CD34+ cells were differentiated in the presence of Bitopertin (100 nM) or DMSO control into erythroid cells for 9 days in StemSpan SFEM II media supplemented with StemSpan Erythroid Expansion Supplement. The erythroid cell antigen profile was analyzed using cytofluorimetric strategy with the following surface markers: CD71 (PE Mouse Anti-Human CD71, BD Biosciences), glycophoryin A (APC Mouse Anti-Human CD235a, BD Biosciences).

As to `CN(CC[C@@H](Oc1ccc(-c2ccccc2)cc1)c1ccc(F)cc1)CC(=O)O` [ALX-5407], the concentration giving a half-maximal response (EC50) in the data set on K562 clone-9 cells [1] came out at 0.34 nM.
Regarding `C[C@H](Oc1ccc(S(C)(=O)=O)cc1C(=O)N1CCN(c2ncc(C(F)(F)F)cc2F)CC1)C(F)(F)F` [Bitopertin, bitopertin], in the data set on K562 clone-9 cells [1], the 50% effective concentration (EC50) came to 7 nM. Moreover, the “effect on cell viability” value in the data set with K562 clone-9 cells [2] is given as “no negative effects on cell viability”. Further, in data set [3], the “5-aminolevulinic acid (5-ALA) level” value is “decreased”, the Heme formation entry is on record as “minimal effect” and the PPIX level entry was “decreased”. For the same compound, the “effect on erythroid cell surface markers (CD71, glycophoryin A)” value in data set [4] was “no negative effects”. The “reduction of PPIX accumulation” value in data set [4] (FECH shRNA transduced CD34+ cells, flow cytometry) is on record as 60%.
With `CN(CCOc1ccc(-c2ccc3c(c2)OCO3)cc1C(C)(C)C)CC(=O)O` [LY-2365109], the EC50 in the data set with K562 clone-9 cells [1] stood at 4.1 nM.
For the compound `CN(CC[C@@H](Oc1ccc(C(F)(F)F)cc1)c1ccccc1)CC(=O)O` [ORG-24598], in the data set with K562 clone-9 cells [1], the concentration for a half-maximal effect (EC50) turned out to be 5.6 nM.
As to `COc1cc(C(=O)NCC2(N(C)C)CCCC2)cc(OC)c1OCc1ccccc1` [ORG-25543], the “inhibition of PPIX accumulation (in words)” value in the data set on K562 clone-9 cells [1] (EPP cellular model, highest tested concentration 10 μM for ORG-25543) is reported as “did not show any inhibition”. Also, the EC50 in the data set with K562 clone-9 cells [1] was greater than 10000 nM.
With `COc1ccc2c(c1)CC[C@H](CN(C)CC(=O)O)[C@@H]2c1ccccc1` [ORG-25935], the concentration giving a half-maximal response (EC50) with K562 clone-9 cells [1] amounted to 14 nM.
On the same count and under the same terms, to `CN1C[C@@H]2[C@H](C1)[C@H]2CN(Cc1ccc(F)c(Cl)c1)C(=O)c1cn(C)cn1` [PF-03463275] belongs 46 nM; to `O=C(N[C@@H](c1ccccc1)[C@@H]1CCCCN1)c1cccc(C(F)(F)F)c1Cl` [SSR-504734], 306 nM.
